Assay results reported in publication PMC12621189, “Optimization of Selective and CNS Penetrant Alkyne-Based TREK Inhibitors: The Discovery and Characterization of ONO-9517601 (VU6022856) and ONO-7927846 (VU6024391)” (Journal of Medicinal Chemistry, 2025).
pIC50: −log10 of the molar value. Values after ≈ are worked out from the molar mass of the structure shown.

Assays:
Aqueous solubility = type: physicochemical
human TREK-2 = molecular target: T1, human TREK-2 (Homo sapiens, UniProt P57789); test: hTREK-2 manual patch clamp assay; type: cell-based; conditions: human TREK-2, manual patch clamp; read-out: TREK-2 IC50 (human, MPC)
T1 construct: expressed in transfected cells
Protocol: compounds were dissolved into the bathing solution. The effects of test compound on the currents were calculated at 0 mV using the following equations:
% inhibition = (1-post current/pre current) x 100
% inhibition vs compound concentrations were plotted in GraphPad Prism and calculated IC50. […]
hTREK-2 patch clamp assay
HEK293 cells stably expressing human TREK-2 are plated on glass coverslips, and voltage clamped in the whole-cell configuration of the patch clamp technique. Cells are voltage clamped at a holding potential of -80 mV and the stepped to 0 mV for 500 msec. The voltage is subsequently ramped from -120mV to +80 mV over a 500 msec duration. This step-ramp protocol is repeated every 10 sec. The bathing solution contained the following: 135 mM NaCl, 5 mM KCl, 2 mM CaCl2, 1 mM MgCl2, 5 mM D-Glucose, 10 mM HEPES, 10 mM sucrose (adjusted to pH 7.4 with NaOH, 300 mosmol/kg H2O). The pipette solution contained the following: 135 mM KCl, 2 mM MgCl2, 1 mM EGTA, 10 mM HEPES, 2 mM Na2ATP (adjusted to pH 7.35 with KOH, 285 mosmol/kg H2O). Test compounds are dissolved into the bathing solution. Experiments are terminated with the addition of the control compound (tert-butyl (3-((4-(benzyloxy)-2-methylphenyl)carbamoyl)-4-chlorophenyl)carbamate) so that maximal inhibition can be determined. The effects of test compound on the currents can be calculated at 0 mV using the […]

CYP 3A4 = CYP 3A4 (Homo sapiens, UniProt P08684); test: CYP450 inhibition 3A4; type: in vitro ADME
MK-801 challenged mouse = test: MK-801 challenge novel object recognition (NOR), mouse; type: in vivo; conditions: dosed orally, data not shown
Protocol: Brain plasma concentration ratio (Kp) was calculated by dividing brain concentration by plasma concentration for each animal. Unbound brain to unbound plasma concentration ratio (Kp,uu) is calculated using the following formula: Kp,uu = (Brain ng/g x brain fu)/(plasma ng/ml x plasma fu).
In-vitro determination of blood-brain barrier penetration potential
Blood-brain barrier penetration was determined using MDR1-MDCK cell monolayers by Absorption Systems, following their protocol. In short, compounds were incubated at […] final concentration on one side of the cell monolayer for 2 hours. Compounds concentration on either side of the monolayer was determined by LC-MS/MS and apparent permeability and efflux ratio were determined as described in Wang, Q. et al.1
MK-801 induced novel object recognition test […]
Behavioral analysis: An observer blinds to treatment condition and novel object location used the video recordings to score the interaction of the animal with the two objects offline. The duration an animal explored each object was determined as the total time an animal is facing the object with its nose being ≦ 2 cm away from the object and some discernible whisker movement […]
Data Analysis: Statistical analyses can be performed using EXSUS ver 8.1 (CAC Croit Corporation). The vehicle and compound-treated groups were analyzed by one-way ANOVA followed by Dunnett's test. […]

[1] = Brain exposure at the MED (rat NOR); type: in vivo; conditions: oral, 10 at 1 mg/kg, 11 at 0.3 mg/kg
[2] = IV/PO pharmacokinetic study, rat (SD); type: in vivo; conditions: for clearance / Vd / half-life / Cmax: Sprague-Dawley, plasma; for clearance / Vd / half-life: iv 1 mg/kg; for clearance: read-out: CLp; for Vd: read-out: Vss; for half-life: read-out: elimination t1/2 (converted); for Cmax / F (%) po: po 1 mg/kg
CYP 1A2 = CYP 1A2 (Homo sapiens, UniProt P05177); test: CYP450 inhibition 1A2; type: in vitro ADME
Chain of CYP 1A2 (P05177 whole entry): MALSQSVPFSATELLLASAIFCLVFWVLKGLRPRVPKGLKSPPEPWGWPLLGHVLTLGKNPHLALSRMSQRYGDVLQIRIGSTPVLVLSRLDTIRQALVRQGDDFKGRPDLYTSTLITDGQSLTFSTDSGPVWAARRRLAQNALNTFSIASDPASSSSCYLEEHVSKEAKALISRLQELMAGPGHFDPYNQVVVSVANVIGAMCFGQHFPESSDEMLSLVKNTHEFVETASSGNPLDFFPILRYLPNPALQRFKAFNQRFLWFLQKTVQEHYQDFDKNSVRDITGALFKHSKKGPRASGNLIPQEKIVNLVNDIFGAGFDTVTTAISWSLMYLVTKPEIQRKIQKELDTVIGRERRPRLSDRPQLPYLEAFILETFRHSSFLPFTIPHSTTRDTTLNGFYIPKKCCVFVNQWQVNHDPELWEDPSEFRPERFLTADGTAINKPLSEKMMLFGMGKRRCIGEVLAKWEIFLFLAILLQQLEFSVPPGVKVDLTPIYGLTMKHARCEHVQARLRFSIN

T1 sequence (P57789 whole entry): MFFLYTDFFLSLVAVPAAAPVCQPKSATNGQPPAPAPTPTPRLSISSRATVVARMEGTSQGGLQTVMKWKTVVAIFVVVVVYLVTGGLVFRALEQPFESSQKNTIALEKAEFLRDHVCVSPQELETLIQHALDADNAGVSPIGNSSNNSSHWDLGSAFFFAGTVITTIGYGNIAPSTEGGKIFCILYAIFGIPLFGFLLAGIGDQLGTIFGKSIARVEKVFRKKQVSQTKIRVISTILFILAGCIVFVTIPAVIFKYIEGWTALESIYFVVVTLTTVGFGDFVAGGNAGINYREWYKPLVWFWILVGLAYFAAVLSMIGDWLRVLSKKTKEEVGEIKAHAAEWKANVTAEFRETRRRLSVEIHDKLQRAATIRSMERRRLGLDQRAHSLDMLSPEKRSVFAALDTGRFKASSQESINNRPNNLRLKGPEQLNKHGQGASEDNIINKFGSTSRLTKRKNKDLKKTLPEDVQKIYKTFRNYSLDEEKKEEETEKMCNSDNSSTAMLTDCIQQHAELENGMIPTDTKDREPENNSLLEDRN
Chain of CYP 3A4 (P08684 whole entry): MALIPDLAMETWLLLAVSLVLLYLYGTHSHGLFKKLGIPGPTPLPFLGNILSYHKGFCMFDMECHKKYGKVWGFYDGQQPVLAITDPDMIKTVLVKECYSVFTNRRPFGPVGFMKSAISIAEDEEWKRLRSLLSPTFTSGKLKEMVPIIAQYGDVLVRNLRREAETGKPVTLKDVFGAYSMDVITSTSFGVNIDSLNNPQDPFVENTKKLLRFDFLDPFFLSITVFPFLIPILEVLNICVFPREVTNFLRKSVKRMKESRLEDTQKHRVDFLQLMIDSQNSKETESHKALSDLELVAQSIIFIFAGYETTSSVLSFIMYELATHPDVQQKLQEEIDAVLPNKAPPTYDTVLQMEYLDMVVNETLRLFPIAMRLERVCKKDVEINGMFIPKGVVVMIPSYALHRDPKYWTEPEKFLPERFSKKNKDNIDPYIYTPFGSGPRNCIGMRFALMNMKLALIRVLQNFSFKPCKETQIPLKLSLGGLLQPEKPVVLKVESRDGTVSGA

Compound	solubility (Aqueous solubility) [µM]	pIC50 (human TREK-2)	pIC50 (CYP 3A4)	MED in the NOR cognition assay, MK-801 challenged mouse (MK-801 challenged mouse) [mg/kg]	Cmax [1] [nM]	clearance [2] [mL/min/kg]	Vd [2] [L/kg]	half-life [2] [h]	Cmax [2] [ng/mL]	F (%) po [2] [%]	pIC50 (CYP 1A2)
CC(=O)N1CCC(n2ncc(Cl)c2C(=O)Nc2ncc(C#Cc3ccccc3)cc2C)CC1 [Compound 10, 1-(1-Acetylpiperidin-4-yl)-4-chloro-N-(3-methyl-5-(phenylethynyl)pyridin-2-yl)-1H-pyrazole-5-carboxamide]	31 (≈ 14.3 µg/mL)	7.09	4.97	1	218	30	2.2	1	80	40	4.63
CC(=O)N1CC[C@@H](n2ncc(Cl)c2C(=O)Nc2ncc(C#Cc3ccc(F)cc3)cc2C)[C@H](F)C1 [Compound 11, 1-((3R,4R)-1-Acetyl-3-fluoropiperidin-4-yl)-4-chloro-N-(5-((4-fluorophenyl)ethynyl)-3-methylpyridin-2-yl)-1H-pyrazole-5-carboxamide]	14 (≈ 6.97 µg/mL)	6.96	4.98	3	58	6.1	2.7	5.5	162	57	< 4.52
